Measurements: patent publication US9777005B2 (Takeda Pharmaceutical Company Limited, priority 2012, dated 2017)
Counter-ions that a name gives are not always drawn.

Biological target: T1, human M1 receptor (hCHRM1) (Homo sapiens, UniProt P11229)
T1 construct: expressed in transfected cells; host or cells: CHO-K1
T1 sequence (P11229 1-460): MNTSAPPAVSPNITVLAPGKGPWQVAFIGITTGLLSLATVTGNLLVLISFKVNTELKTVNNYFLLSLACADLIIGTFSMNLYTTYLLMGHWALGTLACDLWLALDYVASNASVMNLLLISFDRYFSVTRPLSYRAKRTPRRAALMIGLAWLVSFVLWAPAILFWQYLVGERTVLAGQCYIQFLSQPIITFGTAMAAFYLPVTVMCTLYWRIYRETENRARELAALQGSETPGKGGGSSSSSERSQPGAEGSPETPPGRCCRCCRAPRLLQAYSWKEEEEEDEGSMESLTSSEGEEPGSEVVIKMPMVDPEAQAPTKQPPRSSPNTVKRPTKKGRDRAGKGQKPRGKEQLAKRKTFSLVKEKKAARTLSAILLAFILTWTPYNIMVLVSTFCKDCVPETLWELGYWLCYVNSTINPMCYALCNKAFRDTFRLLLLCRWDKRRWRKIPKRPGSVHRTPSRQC
Assay: Measurement of M1 receptor positive allosteric modulator (M1PAM) activity, calcium fluorescence (FLIPRtetra) in CHO-K1 cells in the presence of acetylcholine at EC20
Format: cell-based
Conditions: in the presence of acetylcholine at EC20 (final 0.6 nM), CHO-K1 cells expressing hCHRM1; for EC50: inflection point of M1PAM activity, read-out: IP value; for activity (%) at 10 μM: test compound 10 μM
Experimental: Measurement of M1 Receptor Positive Allosteric Modulator (M1PAM) Activity
The activity of a test compound in the presence of acetylcholine at EC20 concentration (final concentration 0.6 nM), which affords an action corresponding to 20% of the maximum activity, was measured as PAM activity. The method is as follows. CHO-K1 cells forcibly expressing a human M1 receptor (hCHRM1) were plated on a 384-well black clear bottom plate (BD Falcon) at 5,000 cells/well, and cultured in an incubator at 37° C., 5% CO2 for 1 day. The medium in the cell plate was removed, and assay buffer A (Recording medium (DOJINDO LABORATORIES), 0.1% BSA (Wako Pure Chemical Industries, Ltd.), 2.5 μg/mL Fluo-4 AM (DOJINDO LABORATORIES), 0.08% Pluronic F127 (DOJINDO LABORATORIES), 1.25 mM probenecid (DOJINDO LABORATORIES)) containing a calcium indicator was added at 30 μL/well. The cells were left standing in the incubator at 37° C., 5% CO2 for 30 min, and further left standing at room temperature for 30 min. A test compound prepared by diluting with assay buffer B (HBSS (Invitrogen), 20 mM HEPES (Invitrogen), 0.1% BSA) containing 2.4 nM acetylcholine was added at 10 μL/well, and the fluorescence was measured by FLIPRtetra (Molecular Devices) for 1 min every 1 second. With the definition that the amount of change in the fluorescence on addition of acetylcholine (final concentration 1 μM) is 100% and that on addition of DMSO instead of a test compound is 0%, the activity (%) of the test compound and the inflection point in the concentration-dependent curve of the test compound were calculated as IP values.

| EC50 | activity (%) at 10 μM | activity (%) at 10 μM (hydrochloride) | Compound |
| --- | --- | --- | --- |
| 9.4 nM | 100% |  | Cn1ccc(-c2ccc(CN3Cc4ccnc(OCC5CCCO5)c4C3=O)cc2)n1 (single isomer, unassigned) [Example 246, 2-(4-(1-methyl-1H-pyrazol-3-yl)benzyl)-4-((tetrahydrofuran-2-yl)methoxy)-1,2-dihydro-3H-pyrrolo[3,4-c]pyridin-3-one] |
| 24 nM | 106% |  | Cn1cc(-c2ccc(CN3Cc4ccnc(Oc5c(F)cccc5Cl)c4C3=O)cc2)nn1 [Example 231, 4-(2-chloro-6-fluorophenoxy)-2-(4-(1-methyl-1H-1,2,3-triazol-4-yl)benzyl)-1,2-dihydro-3H-pyrrolo[3,4-c]pyridin-3-one] |
| 54 nM | 103% |  | O=C1c2c(ncnc2Oc2c(F)cc(F)cc2F)CN1Cc1ccc(-c2ccnnc2)cc1 [Example 369, 6-(4-(pyridazin-4-yl)benzyl)-4-(2,4,6-trifluorophenoxy)-6,7-dihydro-5H-pyrrolo[3,4-d]pyrimidin-5-one] |
| 49 nM | 101% |  | Cc1cc(-c2ccc(CN3Cc4cccc(OCC5CCCO5)c4C3=O)cc2)cnn1 (centres unmarked) [Example 356, 2-(4-(6-methylpyridazin-4-yl)benzyl)-7-((tetrahydrofuran-2-yl)methoxy)isoindolin-1-one] |
| 27 nM | 100% |  | O=C1c2c(ccnc2Oc2ccc(C(F)(F)F)cc2F)CN1Cc1ccc(-c2ccnnc2)cc1 [Example 309, 4-(2-fluoro-4-(trifluoromethyl)phenoxy)-2-(4-(pyridazin-4-yl)benzyl)-1,2-dihydro-3H-pyrrolo[3,4-c]pyridin-3-one] |
| 14 nM | 105% |  | Cn1cc(-c2ccc(CN3Cc4cccc(O[C@H]5CCC[C@@H]5O)c4C3=O)cc2)nn1 (relative stereo) [Example 235, 7-((trans-2-hydroxycyclopentyl)oxy)-2-(4-(1-methyl-1H-1,2,3-triazol-4-yl)benzyl)isoindolin-1-one] |
| 10 nM | 97% |  | COc1ccc(F)c(Oc2nccc3c2C(=O)N(Cc2ccc(-c4cn(C)nc4C)cc2F)C3)c1F [Example 283, 4-(2,6-difluoro-3-methoxyphenoxy)-2-(4-(1,3-dimethyl-1H-pyrazol-4-yl)-2-fluorobenzyl)-1,2-dihydro-3H-pyrrolo[3,4-c]pyridin-3-one] |
| 46 nM | 109% |  | Cc1nn(C)cc1-c1ccc(CN2Cc3ncnc(Oc4c(F)cccc4F)c3C2=O)c(F)c1 [Example 372, 4-(2,6-difluorophenoxy)-6-(4-(1,3-dimethyl-1H-pyrazol-4-yl)-2-fluorobenzyl)-6,7-dihydro-5H-pyrrolo[3,4-d]pyrimidin-5-one] |
| 31 nM | 111% |  | Cc1ccc(Oc2nccc3c2C(=O)N(Cc2ccc(-n4cnc(C)c4)cc2)C3)c(F)c1 [Example 427, 4-(2-fluoro-4-methylphenoxy)-2-(4-(4-methyl-1H-imidazol-1-yl)benzyl)-1,2-dihydro-3H-pyrrolo[3,4-c]pyridin-3-one] |
| 49 nM | 92% |  | Cn1cc(-c2ccc(CN3Cc4ccnc(OCC5CC5)c4C3=O)cc2)nn1 [Example 337, 4-(cyclopropylmethoxy)-2-(4-(1-methyl-1H-1,2,3-triazol-4-yl)benzyl)-1,2-dihydro-3H-pyrrolo[3,4-c]pyridin-3-one] |
| 7.2 nM | 108% |  | Cc1cc(-c2ccc(CN3Cc4ccnc(O[C@H]5CCC[C@@H]5O)c4C3=O)cc2)ccn1 (relative stereo) [Example 76, 4-((trans-2-hydroxycyclopentyl)oxy)-2-(4-(2-methylpyridin-4-yl)benzyl)-1,2-dihydro-3H-pyrrolo[3,4-c]pyridin-3-one] |
| 140 nM | 92% |  | Cc1cc(-c2cnc(CN3Cc4cccc(Oc5c(F)cccc5F)c4C3=O)c(F)c2)ccn1 [Example 264, 7-(2,6-difluorophenoxy)-2-((5-fluoro-2′-methyl-3,4′-bipyridin-6-yl)methyl)isoindolin-1-one] |
| 16 nM | 103% |  | Cn1ccc(-c2ccc(CN3Cc4ccnc(Oc5ccc(C#N)cc5F)c4C3=O)cc2)n1 [Example 374, 3-fluoro-4-((2-(4-(1-methyl-1H-pyrazol-3-yl)benzyl)-3-oxo-2,3-dihydro-1H-pyrrolo[3,4-c]pyridin-4-yl)oxy)benzonitrile] |
| 6.5 nM | 107% |  | Cn1ccc(-c2ccc(CN3Cc4cccc(O[C@@H]5CCOC[C@H]5O)c4C3=O)cc2)n1 [Example 272, 1,5-anhydro-2-deoxy-3-O-(2-(4-(1-methyl-1H-pyrazol-3-yl)benzyl)-3-oxo-2,3-dihydro-1H-isoindol-4-yl)-threo-pentitol] |
| 5.7 nM |  | 107% | Cc1cc(-c2ccc(CN3Cc4ccnc(O[C@@H]5CCC[C@H]5O)c4C3=O)cc2)ccn1 (single isomer, unassigned) [Example 258, 4-((trans-2-hydroxycyclopentyl)oxy)-2-(4-(2-methylpyridin-4-yl)benzyl)-1,2-dihydro-3H-pyrrolo[3,4-c]pyridin-3-one hydrochloride] |
| 7.8 nM | 91% |  | CC(C)n1cc(-c2ccc(CN3Cc4ccnc(Oc5c(F)cc(C#N)cc5F)c4C3=O)cc2)cn1 [Example 384, 3,5-difluoro-4-((2-(4-(1-isopropyl-1H-pyrazol-4-yl)benzyl)-3-oxo-2,3-dihydro-1H-pyrrolo[3,4-c]pyridin-4-yl)oxy)benzonitrile] |
| 10 nM | 113% |  | Cn1ccc(-c2ccc(CN3Cc4ccnc(OCC5CCCO5)c4C3=O)c(F)c2)n1 (centres unmarked) [Example 230, 2-(2-fluoro-4-(1-methyl-1H-pyrazol-3-yl)benzyl)-4-((tetrahydrofuran-2-yl)methoxy)-1,2-dihydro-3H-pyrrolo[3,4-c]pyridin-3-one] |
| 160 nM | 106% |  | O=C1c2c(cccc2O[C@H]2CCC[C@@H]2O)CN1Cc1ccc(-n2cccn2)cc1 (relative stereo) [Example 54, 2-(4-(1H-pyrazol-1-yl)benzyl)-7-((trans-2-hydroxycyclopentyl)oxy)isoindolin-1-one] |
| 16 nM | 106% |  | Cc1cc(C)c(Oc2nccc3c2C(=O)N(Cc2ccc(-c4cnn(C)c4)cc2)C3)c(F)c1 [Example 415, 4-(2-fluoro-4,6-dimethylphenoxy)-2-(4-(1-methyl-1H-pyrazol-4-yl)benzyl)-1,2-dihydro-3H-pyrrolo[3,4-c]pyridin-3-one] |
| 21 nM | 114% |  | O=C1c2c(ccnc2OCC2CCCO2)CN1Cc1ccc(-c2cc[nH]n2)cc1 (centres unmarked) [Example 333, 2-(4-(1H-pyrazol-3-yl)benzyl)-4-((tetrahydrofuran-2-yl)methoxy)-1,2-dihydro-3H-pyrrolo[3,4-c]pyridin-3-one] |

| Compound | EC50 | activity (%) at 10 μM | activity (%) at 10 μM (hydrochloride) |
| --- | --- | --- | --- |
| CCC(O)COc1nccc2c1C(=O)N(Cc1ccc(-c3cn(C)nc3C)cc1)C2 (single isomer, unassigned) [Example 277, 2-(4-(1,3-dimethyl-1H-pyrazol-4-yl)benzyl)-4-(2-hydroxybutoxy)-1,2-dihydro-3H-pyrrolo[3,4-c]pyridin-3-one] | 42 nM | 96% |  |
| 1,5-anhydro-2-deoxy-4-O-(3-oxo-2-(4-(1H-pyrazol-1-yl)benzyl)-2,3-dihydro-1H-isoindol-4-yl)-threo-pentitol [Example 241] | 13 nM | 101% |  |
